Results as given in article PMC7811009, “Oxytocin modulates local topography of human functional connectome in healthy men at rest” (Communications Biology, 2021).

How the values were obtained:
Assay type in all cases: in vivo
[1] = test system: human functional connectome at rest; experiment: Resting-state BOLD-fMRI: mean brain-wide functional connectivity (macroscale); conditions: repeated measures one-way ANOVA, F(2.271, 34.070) = 0.774, p = 0.484
Experimental: (§1) Each experimental session began with the treatment administration protocol that lasted about 22 min in total (Fig. 8, lower panel). After drug administration, participants were guided to the MRI scanner, where eight pulsed continuous arterial spin labelling scans (each lasting approx. eight minutes) were acquired, spanning 15–104 min post-dosing (data reported elsewhere[11]). The 8-min resting state BOLD-fMRI scan reported herein was obtained at about 57 ± 3.38 min post-dosing. Participants were instructed to lie still and maintain their gaze on a centrally placed fixation cross during scanning. We assessed participants’ levels of alertness (anchors: alert-drowsy) and excitement (anchors: excited-calm) using visual analogue scales (0–100) at three different time-points during the scanning session to evaluate subjective drug effects across time (data reported elsewhere[11]).
(§2) MRI data were acquired on a 3 T MR750 system (GE Healthcare, Waukesha, Wisconsin) with a 32-channel head coil. Functional data was acquired using a shot multi-echo echo planar imaging (EPI) sequence (TR = 2500 ms, TE’s = 12, 28, 44 and 60 ms, FA = 80°, FOV = 240 × 240 mm^2, Matrix = 64 × 64, Slice thickness = 3 mm, 32 continuous descending axial slices, resolution = 3.75 × 3.75 × 3 mm). […] The resting state fMRI scan lasted 8 min 10 s, with collection of a total of 192 volumes for each echo. […]

[2] = test system: human functional connectome at rest; experiment: Resting-state BOLD-fMRI, graph theory: global efficiency (macroscale); 40 IU intranasal (spray/nebuliser) or 10 IU intravenous, about 57 min post-dosing, 16 healthy men; conditions: repeated measures one-way ANOVA, F (1.932, 28.980) = 0.568, p = 0.567
Experimental: as §1, §2

[3] = test system: human functional connectome at rest; experiment: Resting-state BOLD-fMRI, graph theory: node degree (mesoscale); same doses, time and cohort; conditions: post-hoc paired t-tests, FDR
Experimental: as §1
We used the CONN functional connectivity toolbox[97] to generate brain-wide functional connectivity matrices for each subject/session. […] The default atlas of the CONN toolbox includes 132 non-overlapping ROIs spanning cortical and subcortical areas and the cerebellum using a combination of the cortical and subcortical areas from the FSL Harvard-Oxford atlas and of the cerebellar areas of the Automatic Anatomical Labelling atlas (Supplementary data 1 for a detailed description). […] Finally, we normalized our correlation measures to z-scores using the Fisher’s r-z transform per subject/session.
We then used our z-transformed connectivity matrices to construct brain graphs representing a functional connectivity network for each subject/session. We used an undirected signed weighted approach in which we kept information about the sign and weight of each of the connections between the nodes (ROIs) of our network, without making assumptions about the direction of this relationship. These connectivity matrices represent fully connected networks, where each node corresponds to each of the ROIs we used to build the functional connectivity matrices and each edge represents the z-transformed value of functional connectivity between a pair of nodes. […] We used the fully weighted networks to calculate equi-sparse networks by retaining a fixed percentage (K) of the total amount of possible edges. […]
For each of the graph metrics analysed, we summarized the different values over the range of thresholds using the area under the curve (AUC), instead of applying multiple testing for each metric/threshold. […]

CC[C@H](C)[C@@H]1NC(=O)[C@H](Cc2ccc(O)cc2)NC(=O)[C@@H](N)CSSC[C@@H](C(=O)N2CCC[C@H]2C(=O)N[C@@H](CC(C)C)C(=O)NCC(N)=O)NC(=O)[C@H](CC(N)=O)NC(=O)[C@H](CCC(N)=O)NC1=O [oxytocin]
Differences in mean functional connectivity across the four treatment conditions [1]: no significant differences
Differences in global efficiency across the four treatment conditions [2]: no significant differences
Nodes with decreased node degree compared to placebo ([3]; intravenous, 10 IU): decreased the node degree of the precuneus and right temporal pole
Nodes with increased node degree compared to placebo ([3]; nebuliser, 40 IU intranasal): increased the node degree of the left posterior superior temporal gyrus and left cerebellum (area 7)
Nodes with decreased node degree compared to placebo ([3]; spray, 40 IU intranasal): decreased the node degree of the right posterior inferior temporal gyrus
Nodes with increased node degree compared to placebo ([3]; spray, 40 IU intranasal): increased node degree of the brainstem, left cerebellum (area 1) and right intracalcarine cortex
